From ChEMBL document CHEMBL4411344, “Synthesis and biological evaluation of new long-chain squaramides as anti-chagasic agents in the BALB/c mouse model” (Bioorg Med Chem, 2019)
The source made the active and inactive calls. The rule behind the calls is not given here.

Columns and labels:
Trypanosoma cruzi [1] = assay: Trypanocidal activity against Trypanosoma cruzi MHOM/Pe/2011/Arequipa DTU 5 amastigotes infected in African green monkey Vero cells assessed as infected cells at 50 uM after 72 hrs by Giemsa-staining based assay; format: functional
Trypanosoma cruzi [2] = assay: Antitrypanosomal activity against Trypanosoma cruzi MHOM/Pe/2011/Arequipa DTU 5 epimastigotes assessed as effect on parasite glycolytic pathway by measuring increase in pyruvate excretion at IC25 after 72 hrs by 1H NMR method; format: functional, organism-based
Trypanosoma cruzi [3] = assay: Antitrypanosomal activity against Trypanosoma cruzi MHOM/Pe/2011/Arequipa DTU 5 epimastigotes assessed as effect on parasite glycolytic pathway by measuring increase in D-lactate excretion at IC25 after 72 hrs by 1H NMR method; format: functional, organism-based
[4] = (§1) Hepatotoxicity in Balb/c mouse infected with Trypanosoma cruzi MHOM/Pe/2011/Arequipa DTU 5 trypomastigotes assessed as change in ratio of serum AST to GOT level at 20 mg/kg, po once daily for 5 consecutive days starting from day 10 post infection measured on day 127 post infection by biochemical analysis (reference value: 179 U/L); format: toxicity, organism-based; conditions: in vivo
Trypanosoma cruzi [5] = assay: Antitrypanosomal activity against Trypanosoma cruzi MHOM/Pe/2011/Arequipa DTU 5 epimastigotes assessed as effect on parasite glycolytic pathway by measuring decrease in pyruvate excretion at IC25 after 72 hrs by 1H NMR method; format: functional; design: scale not given: the % may be the effect or the level left
Trypanosoma cruzi [6] = assay: Antitrypanosomal activity against Trypanosoma cruzi MHOM/Pe/2011/Arequipa DTU 5 epimastigotes assessed as effect on parasite glycolytic pathway by measuring decrease in acetate excretion at IC25 after 72 hrs by 1H NMR method; format: functional, organism-based
Trypanosoma cruzi [7] = assay: Antitrypanosomal activity against Trypanosoma cruzi MHOM/Pe/2011/Arequipa DTU 5 epimastigotes assessed as effect on parasite glycolytic pathway by measuring decrease in L-alanine excretion at IC25 after 72 hrs by 1H NMR method; format: functional, organism-based
Trypanosoma cruzi [8] = assay: Trypanocidal activity against Trypanosoma cruzi MHOM/Pe/2011/Arequipa DTU 5 amastigotes infected in African green monkey Vero cells assessed as reduction in infected cells at <= 12 uM after 72 hrs by Giemsa-staining based assay; format: functional, organism-based
[9] = as §1, with “total bilirubin” for “ratio of serum AST to GOT”, “75” for “10”, “infection” for “infection by biochemical analysis”, “0.23 mg/dl)” for “179 U/L)”; format: toxicity, organism-based; conditions: in vivo
[10] = Cardiotoxicity in Balb/c mouse infected with Trypanosoma cruzi MHOM/Pe/2011/Arequipa DTU 5 trypomastigotes assessed as decrease in ratio of creatine kinase in muscle to brain at 20 mg/kg, po once daily for 5 consecutive days starting from day 75 post infection measured on day 81 post infection relative to control; format: toxicity, organism-based; conditions: in vivo
[11] = Hepatotoxicity in Balb/c mouse infected with Trypanosoma cruzi MHOM/Pe/2011/Arequipa DTU 5 trypomastigotes assessed as increase in total bilirubin level at 20 mg/kg, po once daily for 5 consecutive days starting from day 10 post infection measured on day 16 post infection relative to control; format: toxicity, organism-based; conditions: in vivo

CCCCCCCCCCCCCCCCNc1c(N(C)CCCN(C)C)c(=O)c1=O
Activity (Trypanosoma cruzi [1]): 0
Activity (Trypanosoma cruzi [2]): Active
Activity (Trypanosoma cruzi [3]): Active
Activity [4]: 179 U/L

CCCCCCNc1c(N(C)CCCN(C)C)c(=O)c1=O
Activity (Trypanosoma cruzi [5]): 30%
Activity (Trypanosoma cruzi [6]): Active
Activity (Trypanosoma cruzi [7]): Active
Activity (Trypanosoma cruzi [8]): inactive
Activity [9]: 0.2 mg/dL

O=C(Cn1ccnc1[N+](=O)[O-])NCc1ccccc1 [BENZNIDAZOLE]
Activity [10]: 10 to 20 U/L
Activity [11]: 20 to 30 mg/dL
